The text below walks through data of US10508085B2, “Compounds and methods for IDO and TDO modulation, and indications therefor” (Plexxikon Inc., priority 2016, dated 2019).

Assay [1] addresses T1, human TDO (TDO-expressing HEK293 cells) (Homo sapiens, UniProt P48775).
T1 construct: expressed in transfected cells
The assay can be described thus: Cell based kynurenine assay, TDO-expressing HEK293 cell clones. The procedure, abridged: (§1)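 Kynurenine in culture supernatant read after 24 h compound exposure of HEK293 cells stably expressing human IDO1 or TDO. IC50 from nonlinear regression of % inhibition relative to 0.2% DMSO cell (high) and media-only (low) controls.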

The target in assay [2] is T2, Human Tryptophan 2,3-dioxygenase (TDO) (Homo sapiens, UniProt P48775).
T2 construct: His tag (N); made in house; host or cells: E. coli
The assay can be described thus: Human TDO enzymatic assay (kynurenine level). In kind it is biochemical. The procedure, abridged:
(§2)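 IDO conditions: 6 nM His-IDO, 10 μM L-Trp, 5 μM methylene blue, 20 min, RT. TDO conditions: 1 nM His-TDO, 350 μM L-Trp, 0.4 μM methylene blue, 70 min, RT. Both used pH 6.5 phosphate plus ascorbate/catalase, TCA stop at 50° C, kynurenine readout, nonlinear-regression IC50.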

Assay [3] addresses T3, human IDO (IDO1-expressing HEK293 cells) (Homo sapiens, UniProt P14902).
T3 construct: expressed in transfected cells
As to the kind of experiment: Cell based kynurenine assay, IDO1-expressing HEK293 cell clones. In a few lines:
as §1

In assay [4] the target is T4, Human Indoleamine 2,3-dioxygenase (IDO) (Homo sapiens, UniProt P14902).
T4 construct: His tag (N); made in house; host or cells: E. coli
The assay can be described thus: Human IDO enzymatic assay (kynurenine level). In kind it is biochemical. The procedure, abridged: as §2

[5] abbreviates: TDO-expressing HEK293 cells, 24 hours incubation, geometric mean, read-out: HEK293 TDO Kynurenine GMean IC50 (μM) (Cellular Assay).
Setting [6] is: 1 nM TDO, 350 μM L-Trp, geometric mean, read-out: TDO GMean: IC50 (μM) (Biochemical Assay).
Setting [7] is: IDO1-expressing HEK293 cells, 24 hours incubation, geometric mean, read-out: HEK293 IDO1 Kynurenine GMean IC50 (μM) (Cellular Assay).
[8] abbreviates: 6 nM IDO, 10 μM L-Trp, geometric mean, read-out: IDO1 GMean: IC50 (μM) (Biochemical Assay).
[9] abbreviates: TDO-expressing HEK293 cells, 24 hours, geometric mean, read-out: HEK293 TDO Kynurenine GMean IC50 (μM) (Cellular Assay).
Setting [10] is: IDO1-expressing HEK293 cells, 24 hours, geometric mean, read-out: HEK293 IDO1 Kynurenine GMean IC50 (μM) (Cellular Assay).

Read-outs that look alike come from different tables or passages of the source. A value given as a limit tells only on which side of the number the result lay.

T2 sequence (P48775 whole entry): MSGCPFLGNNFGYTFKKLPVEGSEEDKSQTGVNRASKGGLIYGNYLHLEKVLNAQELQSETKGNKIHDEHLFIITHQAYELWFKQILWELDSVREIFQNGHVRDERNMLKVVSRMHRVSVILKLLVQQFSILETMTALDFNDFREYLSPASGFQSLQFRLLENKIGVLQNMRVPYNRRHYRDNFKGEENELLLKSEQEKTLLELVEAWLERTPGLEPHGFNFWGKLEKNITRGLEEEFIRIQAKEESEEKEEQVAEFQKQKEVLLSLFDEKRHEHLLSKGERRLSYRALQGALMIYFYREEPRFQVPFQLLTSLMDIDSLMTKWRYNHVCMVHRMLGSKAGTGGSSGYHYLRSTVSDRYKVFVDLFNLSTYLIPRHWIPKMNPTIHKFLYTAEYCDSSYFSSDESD
T1 sequence (P48775 whole entry): as above
T4 sequence (P14902 whole entry): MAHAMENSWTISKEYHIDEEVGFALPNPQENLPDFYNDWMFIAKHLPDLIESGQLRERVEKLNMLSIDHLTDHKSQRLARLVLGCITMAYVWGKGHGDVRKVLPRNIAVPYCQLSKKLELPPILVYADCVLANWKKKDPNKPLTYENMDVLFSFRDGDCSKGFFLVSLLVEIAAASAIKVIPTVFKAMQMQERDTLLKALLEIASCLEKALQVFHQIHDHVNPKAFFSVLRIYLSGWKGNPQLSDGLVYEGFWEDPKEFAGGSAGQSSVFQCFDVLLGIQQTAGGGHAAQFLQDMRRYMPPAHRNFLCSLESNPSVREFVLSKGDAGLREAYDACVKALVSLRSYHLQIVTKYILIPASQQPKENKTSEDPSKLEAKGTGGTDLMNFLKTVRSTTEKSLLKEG
T3 sequence (P14902 whole entry): as above

For `CC1(C(O)c2c3c(cc4cn[nH]c24)CCC3)CCCCC1` (stereo not shown) [Compound P-0099, (1-methylcyclohexyl)(1,5,6,7-tetrahydrocyclopenta[f]indazol-8-yl)methanol], the IC50 in assay [1] (setting [5]), in assay [2] (setting [6]), in assay [3] (setting [7]) and in assay [4] (setting [8]) was 0.0001 to 10 µM throughout.

For `OC(c1cc(Cl)cc2cn[nH]c12)C12CCC(CC1)C2` (stereo not shown) [Compound P-0229, bicyclo[2.2.1]heptan-1-yl(5-chloro-1H-indazol-7-yl)methanol], the IC50 in assay [1] (setting [5]), in assay [2] (setting [6]), in assay [3] (setting [7]) and in assay [4] (setting [8]) was 0.0001 to 10 µM each time.

With `CC(C)(C1CCN(C(=O)Nc2ccc(C#N)cc2)CC1)[C@H](O)c1c(F)c(Cl)cc2cn[nH]c12` [Compound P-0503, (S)-4-(1-(5-chloro-6-fluoro-1H-indazol-7-yl)-1-hydroxy-2-methylpropan-2-yl)-N-(4-cyanophenyl) piperidine-1-carboxamide], the IC50 in assay [1] (setting [9]), in assay [2] (setting [6]), in assay [3] (setting [10]) and in assay [4] (setting [8]) was 0.0001 to 10 µM throughout.

In the case of `OC(c1c(F)c(Cl)c(F)c2cn[nH]c12)C1CCC1` (stereo not shown) [Compound P-0246, (5-chloro-4,6-difluoro-1H-indazol-7-yl)(cyclobutyl)methanol], the IC50 in assay [1] (setting [5]), in assay [2] (setting [6]), in assay [3] (setting [7]) and in assay [4] (setting [8]) was 0.0001 to 10 µM throughout.

With `CC(C)(C1CCN(C(=O)c2cccnc2)CC1)[C@H](O)c1cc(Cl)cc2cn[nH]c12` [Compound P-0536, (S)-(4-(1-(5-chloro-1H-indazol-7-yl)-1-hydroxy-2-methylpropan-2-yl)piperidin-1-yl)(pyridin-3-yl)methanone], the IC50 in assay [1] (setting [9]), in assay [2] (setting [6]), in assay [3] (setting [10]) and in assay [4] (setting [8]) was 0.0001 to 10 µM throughout.

Regarding `CC1(C(O)c2cc3c(c4cn[nH]c24)CCCC3)CCCCC1` (stereo not shown) [Compound P-0050, (1-methylcyclohexyl)(6,7,8,9-tetrahydro-3H-benzo[e]indazol-4-yl)methanol], the IC50 in assay [1] (setting [5]) is more than 10 µM; in assay [2] (setting [6]) it was 0.0001 to 10 µM; in assay [3] (setting [7]), 0.0001 to 10 µM; in assay [4] (setting [8]) it was 0.0001 to 10 µM.

On to `CCNC(=O)N1CCC(C(C)(C)C(O)c2cc(Cl)cc3cn[nH]c23)CC1` (stereo not shown) [Compound P-0399, 4-(1-(5-chloro-1H-indazol-7-yl)-1-hydroxy-2-methylpropan-2-yl)-N-ethylpiperidine-1-carboxamide], for which the IC50 in assay [1] (setting [5]), in assay [2] (setting [6]), in assay [3] (setting [7]) and in assay [4] (setting [8]) was 0.0001 to 10 µM throughout.

Regarding `CC(C)S(=O)(=O)N1CCC(C(C)(C)C(O)c2cc(Cl)cc3cn[nH]c23)CC1` (stereo not shown) [Compound P-0307, 1-(5-chloro-1H-indazol-7-yl)-2-(1-(isopropylsulfonyl)piperidin-4-yl)-2-methylpropan-1-ol], the IC50 in assay [1] (setting [5]), in assay [2] (setting [6]), in assay [3] (setting [7]) and in assay [4] (setting [8]) was 0.0001 to 10 µM in each case.

Regarding `CC(C)(C1CCN(C(=O)Nc2cccnc2)CC1)[C@@H](O)c1cc(Cl)cc2cn[nH]c12` [Compound P-0430, (R)-4-(1-(5-chloro-1H-indazol-7-yl)-1-hydroxy-2-methylpropan-2-yl)-N-(pyridin-3-yl)piperidine-1-carboxamide], the IC50 in assay [1] (setting [9]), in assay [2] (setting [6]), in assay [3] (setting [10]) and in assay [4] (setting [8]) was 0.0001 to 10 µM each time.

For the compound `CC(C)(C1CCN(C(=O)C2CCC2)CC1)[C@H](O)c1cc(Cl)cc2cn[nH]c12` [Compound P-0498, (S)-(4-(1-(5-chloro-1H-indazol-7-yl)-1-hydroxy-2-methylpropan-2-yl)piperidin-1-yl)(cyclobutyl)methanone], the IC50 in assay [1] (setting [9]), in assay [2] (setting [6]), in assay [3] (setting [10]) and in assay [4] (setting [8]) was 0.0001 to 10 µM throughout.

As to `CNC(=O)N1CCC(C(C)(C)C(O)c2cc(Cl)cc3[nH]ncc23)CC1` (stereo not shown) [Compound P-0169, 4-(1-(6-chloro-1H-indazol-4-yl)-1-hydroxy-2-methylpropan-2-yl)-N-methylpiperidine-1-carboxamide], the IC50 in assay [1] (setting [5]), in assay [2] (setting [6]), in assay [3] (setting [7]) and in assay [4] (setting [8]) was 0.0001 to 10 µM in each case.

Take `OC(CCc1ccccc1)c1cccc2cncn12` (stereo not shown) [Compound P-0074, 1-(imidazo[1,5-a]pyridin-5-yl)-3-phenylpropan-1-ol]: the IC50 in assay [1] (setting [5]) is more than 10 µM; in assay [2] (setting [6]) it was 10 to 100 µM; in assay [3] (setting [7]), more than 10 µM; in assay [4] (setting [8]) it was 0.0001 to 10 µM.

Regarding `CC(C)(C1CCN(C(=O)Nc2ccc(F)cc2F)CC1)C(O)c1cc(Cl)cc2cn[nH]c12` (stereo not shown) [Compound P-0398, 4-(1-(5-chloro-1H-indazol-7-yl)-1-hydroxy-2-methylpropan-2-yl)-N-(2,4-difluorophenyl) piperidine-1-carboxamide], the IC50 in assay [1] (setting [5]), in assay [2] (setting [6]), in assay [3] (setting [7]) and in assay [4] (setting [8]) was 0.0001 to 10 µM each time.

Regarding `OC(c1c(F)c(Cl)c(F)c2cn[nH]c12)C1(C(F)(F)F)CCC1` (stereo not shown) [Compound P-0265, (5-chloro-4,6-difluoro-1H-indazol-7-yl)(1-(trifluoromethyl)cyclobutyl)methanol], the IC50 in assay [1] (setting [5]), in assay [2] (setting [6]), in assay [3] (setting [7]) and in assay [4] (setting [8]) was 0.0001 to 10 µM throughout.

Take `CC(C)(C1CCN(C(=O)Nc2cccnc2)CC1)[C@H](O)c1cc(Cl)cc2cn[nH]c12` [Compound P-0554, (S)-4-(1-(5-chloro-1H-indazol-7-yl)-1-hydroxy-2-methylpropan-2-yl)-N-(pyridin-3-yl)piperidine-1-carboxamide]: the IC50 in assay [1] (setting [9]), in assay [2] (setting [6]), in assay [3] (setting [10]) and in assay [4] (setting [8]) was 0.0001 to 10 µM throughout.

Turning to `OC(c1cc(Cl)cc2cn[nH]c12)C1(C(F)(F)F)CCC1` (stereo not shown) [Compound P-0120, (5-chloro-1H-indazol-7-yl)(1-(trifluoromethyl)cyclobutyl)methanol], the IC50 in assay [1] (setting [5]), in assay [2] (setting [6]), in assay [3] (setting [7]) and in assay [4] (setting [8]) was 0.0001 to 10 µM throughout.

For `OC(c1cc(Cl)cc2cn[nH]c12)C1CCCCC1` (stereo not shown) [drawing 810], the IC50 in assay [1] (cellular assay, HEK293, 24 hours, comparative examples, read-out: hTDO) was found to be 1.2 µM; in assay [2] (biochemical assay, comparative examples, 4,6 versus 5,7 indazole, read-out: TDO) it was 0.17 µM; in assay [3] (cellular assay, HEK293, 24 hours, comparative examples, read-out: hIDO1), 0.23 µM; in assay [4] (biochemical assay, comparative examples, 4,6 versus 5,7 indazole, read-out: IDO1), 0.05 µM.

For the compound `OC1(c2c(F)c(Cl)c(F)c3cn[nH]c23)CC2(C1)C1CCCC2CCC1` (stereo not shown) [Compound P-0249, (1s,5s)-3′-(5-chloro-4,6-difluoro-1H-indazol-7-yl)spiro[bicyclo[3.3.1]nonane-9,1′-cyclobutan]-3′-ol], the IC50 in assay [1] (setting [5]) was more than 10 µM; in assay [2] (setting [6]) it was 0.0001 to 10 µM; in assay [3] (setting [7]), 0.0001 to 10 µM; in assay [4] (setting [8]), 0.0001 to 10 µM.

As to `OC(c1cc(Cl)cc2cn[nH]c12)C1(F)CCC(F)(F)CC1` (stereo not shown) [Compound P-0033, (5-chloro-1H-indazol-7-yl)(1,4,4-trifluorocyclohexyl)methanol], the IC50 in assay [1] (setting [5]), in assay [2] (setting [6]), in assay [3] (setting [7]) and in assay [4] (setting [8]) was 0.0001 to 10 µM in each case.

Turning to `O=C(Nc1ccc(F)cc1)N1CCC(C2(C(O)c3c(F)c(Cl)cc4cn[nH]c34)CC2)CC1` (stereo not shown) [Compound P-0164, 4-(1-((5-chloro-6-fluoro-1H-indazol-7-yl)(hydroxy)methyl)cyclopropyl)-N-(4-fluorophenyl)piperidine-1-carboxamide], the IC50 in assay [1] (setting [5]), in assay [2] (setting [6]), in assay [3] (setting [7]) and in assay [4] (setting [8]) was 0.0001 to 10 µM each time.

Take `CS(=O)(=O)N1CC2(C1)CC(O)(c1cc(Cl)cc3cn[nH]c13)C2` [Compound P-0028, 6-(5-chloro-1H-indazol-7-yl)-2-(methylsulfonyl)-2-azaspiro[3.3]heptan-6-ol]: the IC50 in assay [1] (setting [5]) was 0.0001 to 10 µM; in assay [2] (setting [6]), 0.0001 to 10 µM; in assay [3] (setting [7]), more than 10 µM; in assay [4] (setting [8]) it was 10 to 100 µM.

As to `CS(=O)(=O)N1C2CCC1CN(c1cc(C(F)(F)F)cc3cn[nH]c13)C2` [Compound P-0095, 7-(8-(methylsulfonyl)-3,8-diazabicyclo[3.2.1]octan-3-yl)-5-(trifluoromethyl)-1H-indazole], the IC50 in assay [1] (setting [5]), in assay [2] (setting [6]), in assay [3] (setting [7]) and in assay [4] (setting [8]) was 0.0001 to 10 µM throughout.
